Test results from patent publication US20170112858A1, “Extended Release Aspirin” (New Haven Pharmaceuticals, Inc., priority 2015, published 2017).

Columns and labels:
Assay type in all cases: in vivo, human
[1] = Single dose ASA pharmacokinetics in healthy adults (serial blood samples)
Description: (§1) Healthy adults were randomized to receive single doses of extended release ASA (“ER ASA”) at a dosage of 20 mg, 40 mg, 81 mg, 162.5 mg ER ASA (Durlaza®; New Haven Pharmaceuticals, Inc., North Haven, Conn.), or 325 mg, or immediate release ASA (“IR ASA”; aspirin powder USP; Letco Medical, Decatur, Ala.) at a dosage of 5 mg, 10 mg, 20 mg, 40 mg or 81 mg. […] For pharmacodynamic assessments, serum 11-dehydro-thromboxane (“TxB2”, a stable metabolite of thromboxane A2) levels were assessed using a validated enzyme immunoassay kit in serial blood samples collected 1 hour before dosing and at 0.5, 1, 2, 4, 8, 16, and 24 hours after drug administration.

serum TxB2 production = test: Single dose inhibition of serum TxB2 production in healthy adults (enzyme immunoassay); details: highest doses: ER ASA 81, 162.5, 325 mg; IR ASA 40, 81 mg
Description: as §1

platelet aggregation = test: Light transmittance aggregometry (LTA), AA-, collagen-, ADP-induced, in type II diabetes subjects with vascular disease or CVD risk factors; details: trough
Description: High platelet reactivity has previously been implicated in incomplete inhibition during therapy with immediate release low-dose aspirin in patients with type II diabetes. The main study consisted of a run-in phase where subjects were administered 81 mg, everyday (“QD”), of immediate release acetylsalicylic acid (“IR ASA”) for 7-28 days. […] For this study the trough level data are from the following timepoints: (1) for 81 mg—the data at Visit 2; […]

endothelial function = test: Reactive hyperemia index (ENDOPAT pulsatile arterial tonometry)
Description: Endothelial function was assessed using the ENDOPAT system ([…] Medical, Israel), a pulsatile arterial tonometry-based diagnostic device, at Visit 2, Visit 3, Visit 5, and Visit 6 predose. The reactive hyperemia index (“RHI”), a measure of endothelial function, and the augmentation index (“AI”), a measure of arterial stiffness, were determined. Endothelial dysfunction is defined as RHI <1.67. Normal arterial stiffness is defined as an AI -30% to -10%, increased arterial stiffness as an AI >-10% to 10%, and abnormal arterial stiffness as an AI >10%. The RHI measures vessel pliability which is a surrogate for nitric oxide production. The production of nitric oxide inhibits platelet aggregation. Thus, determining nitric oxide production following Durlaza® dosing is important to understanding its affect on platelet inhibition.

[2] = test system: High Sensitive C-Reactive Protein (hs-CRP); test: High Sensitive C-Reactive Protein test (Immulite 2000 Xpi)
Description: Subjects were also measured for high sensitive C-reactive protein (“hs-CRP”) levels at Visit 1, Visit 2, Visit 3 pre-dose, Visit 3 at 24 hours, Visit 6 pre-dose and Visit 6 at 24 hours.
High Sensitive C-Reactive Protein (“hs-CRP”) was measured using a Seimens Immulite 2000® Xpi analyzer (Immulite 2000 is a registered trademark of Siemens Healthcare Diagnostic, Inc.), prior to 162.5 mg ER ASA (Durlaza®) dosing at Visit 2 pre-dose, at Visit 3 pre-dose and Visit 3 at 24-hr post-dose for the 162.5 mg ER ASA (Durlaza®) dose, and at Visit 6 pre-dose and Visit 6 at 24-hr post-dose for the 325 mg ER ASA dose.

TxB2 = test: Excretion of thromboxane metabolite, urine GC/MS (Example 3)
Description: (§2) Subjects of Group 1 were randomly administered a placebo, 81 mg IR ASA and 162.5 mg IR ASA. Subjects of Group 2 were randomly administered a placebo, 81 mg ER ASA and 162.5 mg ER ASA (Durlaza®). Each subject was prohibited from taking any aspirin for two weeks prior to being administered the randomly chosen drug daily for 1 week followed by a urine collection 24 hours after dosing. This protocol was repeated two additional times. For each urine collection TxB2 and 2, 3-dinor-6-keto-PGF1α (“prostacyclin”) levels were measured using gas chromatography-mass spectrometry (“GC/MS”). Statistical analysis was done using Wilcoxon rank sum test for continuous variables and the Pearson test for categorical variables.

[3] = test system: 2, 3-dinor-6-keto-PGF1α (prostacyclin); test: Excretion of prostacyclin metabolite, urine GC/MS (Example 3)
Description: as §2

[4] = Visit 2, 81 mg IR QD (vs. Visit 3 pre dose)
[5] = Visit 2, 81 mg IR QD (vs. Visit 6 pre dose)

Q: With `CC(=O)Oc1ccccc1C(=O)O` [IR ASA, acetylsalicylic acid] as the compound, how does the “time required to reach the maximum concentration of ASA” value ([1]; all doses, single dose) read?
A: The value was 1 to 2 h.

Q: What about the “AUClast of ASA” value ([1]; single dose 40 mg) of the same compound?
A: Its value is 384 ng·h/mL.

Q: What about the “AUClast of ASA” value ([1]; single dose 81 mg) of the same compound?
A: Its value is 865 ng·h/mL.

Q: What about the “single dose inhibition of TxB2 production” value (serum TxB2 production) of the same compound?
A: The value was “maintained during a 24-hour period”.

Q: What about the “LTA (%) 2 mM AA (Final), first line so headed” value (platelet aggregation; [4]) of the same compound?
A: The value was 5 ± 12%.

Q: And the “LTA (%) 2 mM AA (Final), second line so headed” value (platelet aggregation; [4])?
A: The value was 6 ± 13%.

Q: What about the “LTA (%) 2 mM AA (Final), first line so headed” value (platelet aggregation; [5]) of the same compound?
A: Its value is 3 ± 2%.

Q: And the “LTA (%) 2 mM AA (Final), second line so headed” value (platelet aggregation; [5])?
A: The value was 3 ± 2%.

Q: What about the “subjects with RHI < 1.67 (n, %)” value (endothelial function; HPT Group, Visit 5, 81 mg IR ASA QD) of the same compound?
A: The value was 4 (44) n, %.

Q: What about the “subjects with RHI < 1.67 (n, %)” value (endothelial function; Visit 2, 81 mg IR ASA QD) of the same compound?
A: The value was 11 (27.5) n, %.

Q: What about the “subjects with hs-CRP >3 mg/L (n, %)” value ([2]; V2 pre-dose, 81 mg IR ASA) of the same compound?
A: Its value is 23 (57) n, %.

Q: What about the “patients meeting the criteria for elevated CRP” value ([2]; during 81 mg IR ASA therapy, total study population) of the same compound?
A: The value was 47%.

Q: And the “Bradykinin-stimulated TxB2 levels 4 hours post-dosing, over placebo” value (TxB2; 81 mg daily)?
A: The value was “significantly reduced”.

Q: And the “Basal urinary TxB2 levels 24 hours post-dosing, over placebo” value (TxB2; 81 mg daily for 1 week)?
A: Its value is “significantly reduced”.

Q: And the “Bradykinin-stimulated TxB2 levels 4 hours post-dosing, over placebo” value (TxB2; 162.5 mg daily)?
A: The value was “significantly reduced”.

Q: What about the “Basal urinary TxB2 levels 24 hours post-dosing, over placebo” value (TxB2; 162.5 mg daily for 1 week) of the same compound?
A: The value was “significantly reduced”.

Q: And the “dose dependence of the effect on TxB2 synthesis” value (TxB2; 81 vs 162.5 mg)?
A: Its value is “not seen”.

Q: And the “Bradykinin-stimulated prostacyclin levels, over placebo” value ([3]; 81 mg daily)?
A: The value was “significantly reduced”.

Q: What about the “Bradykinin-stimulated prostacyclin levels, over placebo” value ([3]; 162.5 mg daily) of the same compound?
A: Its value is “significantly reduced”.
